Results reported in patent publication US7858635B2 (priority 2005, dated 2010).
Where two headings read alike, the source gives them in different places.

What was measured:
M4 muscarinic receptor = molecular target: T1, M4 muscarinic receptor (Homo sapiens, UniProt P08173); experiment: Functional mobilization of intracellular calcium (FLIPR, Fluo-3), M4-CHO cells; assay type: cell-based; details: for Emax: 100% efficacy is the maximum response obtained with the Carbachol control, read-out: M4 Efficacy
T1 construct: expressed in transfected cells; host or cells: CHO cells (M4-CHO, under puromycin, zeocin and blasticidin selection)
T1 sequence (P08173 1-479): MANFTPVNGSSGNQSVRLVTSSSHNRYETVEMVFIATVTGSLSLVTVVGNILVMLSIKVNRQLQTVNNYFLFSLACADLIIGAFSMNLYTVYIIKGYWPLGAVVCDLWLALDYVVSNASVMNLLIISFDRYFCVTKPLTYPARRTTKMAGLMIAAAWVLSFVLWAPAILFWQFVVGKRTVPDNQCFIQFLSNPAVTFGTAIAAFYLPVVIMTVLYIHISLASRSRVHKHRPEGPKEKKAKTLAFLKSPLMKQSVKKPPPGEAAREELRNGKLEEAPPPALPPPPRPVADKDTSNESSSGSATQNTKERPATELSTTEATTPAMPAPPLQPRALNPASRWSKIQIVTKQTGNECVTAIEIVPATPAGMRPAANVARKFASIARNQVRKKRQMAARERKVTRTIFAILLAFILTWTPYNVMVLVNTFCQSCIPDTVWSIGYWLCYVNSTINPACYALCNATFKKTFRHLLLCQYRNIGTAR
Procedure: (§1) CHO cells expressing muscarinic receptors (M1 to M5) are grown as monolayers in tissue culture flasks at 37° C. in a humidified atmosphere containing 5% CO2 and passaged every 3-5 days. The growth media is Dulbecco's modified eagles medium (DMEM, Gibco Cat#12430-054), containing 25 mM Hepes and supplemented with Fetal Bovine Serum (Hyclone, cat# SH30071.03), 0.1 mM of MEM non-essential amino acids (GIBCO, Cat# 11140-050), 1 mM MEM Sodium Pyruvate (GIBCO Cat# 11360-070) and 100 units/ml of Penicillin G and 100 μg/ml of Streptomycin (GIBCO Cat# 15140-122). The recombinant muscarinic receptor cell lines are grown under antibiotic pressure with media containing 25 μm/ml zeocin and 500 μg/ml G418 (M1-CHO), 4 μg/ml puromycin, 50 μg/ml zeocin and 2.5 μm/ml blasticidin (M2 and M4-CHO) or 50 μg/ml zeocin and 4 μg/ml puromycin (M3 and M5-CHO).
(§2) Cells are harvested at 80-90% confluence using Versene (GIBCO Cat# 15040-066), collected by centrifugation and seeded 18-24 hrs prior to running the calcium assay at a density of 5,000-10,000 cells/well in […], clear-bottomed 384-well plates (BD Biocoat, poly-D-lysine, Cat#356663). The day of the experiment, the cells are washed with a plate washer (Bioteck Instruments, ELX 405) using bath1 buffer (140-mM NaCl, 4.5-mM KCL, 2-mM CaCl2, 1-mM MgCl2, 10-mM Hepes-Na, 10-mM Glucose, pH 7.4, with NaOH) containing 1 mM Probenecid. Next, the calcium dye Fluo-3 (25 μl/well of Fluo-3 μM at 4 μM, Molecular Probes F-1241, in Bath 1 buffer containing 1 mM Probenecid) is added to the 25 μl of Bath 1 remaining in each well after the plate wash and the dye is loaded at 37° C. in the tissue culture incubator for 60-90 min. The fluorescent dye is removed using the plate washer with Bath 1 containing 1 mM Probenecid, leaving 25 μl/well of this solution after the wash. Alternatively, cells can be loaded with the calcium indicator from Molecular Devices (Calcium 3 Assay Reagents, Cat # R7181) adding 5 μl of a 5× solution dye in Bath 1 containing 1 mM Probenecid (10 ml per dye flask cat# R7182 to generate a solution 20×) to 20 μl of the same buffer. After loading for 60 min, the experiment can be run without having to remove the dye.
(§3) Compounds are prepared at a 2× fold concentration in a 96-well plate (round bottom, Costar Corning cat# 3656), by reconstituting the pre-spotted compounds in bath 1 containing 1 mM probenecid. The final concentration DMSO is 0.5%, and the amount of DMSO is normalized across the assay plate. To determine an agonist action of the compounds on muscarinic receptors, the reconstituted compounds are added (25 μl compound/well) to the cell assay plate (containing 25 μl/well) using the multi-channel robotic system of the FLIPR 3 Instrument (Molecular Devices, Sunnyvale, Calif.). To determine a functional inhibitory action of the compounds on muscarinic receptors, the reconstituted compounds are added (25 μl compound/well) to the assay plate and pre-incubated for 15 min prior to adding 25 μl of Carbachol at 3× the EC80 for each muscarinic subtype. Alternatively, the compounds can be co-applied simultaneously with the agonist. In both assay modes, the fluorescence is recorded for 60 sec (excitation wavelength is […] and emission wavelength 540 nm) using the FLIPR 3 instrument.
(§4) The potency, efficacy and selectivity of the muscarinic compounds were evaluated by screening the compound activity across the whole family (M1 to M5 cells). Compounds were also screened for activity on other proteins such as other GPCRs and ion channels to determine selectivity on M4 receptors.

M1 muscarinic receptor = molecular target: T2, M1 muscarinic receptor (Homo sapiens, UniProt P11229); experiment: Functional mobilization of intracellular calcium (FLIPR, Fluo-3), M1-CHO cells; assay type: cell-based; details: for Emax: 100% efficacy is the maximum response obtained with the Carbachol control, read-out: M1 Efficacy
T2 construct: expressed in transfected cells; host or cells: CHO cells (M1-CHO, under zeocin and G418 selection)
T2 sequence (P11229 1-460): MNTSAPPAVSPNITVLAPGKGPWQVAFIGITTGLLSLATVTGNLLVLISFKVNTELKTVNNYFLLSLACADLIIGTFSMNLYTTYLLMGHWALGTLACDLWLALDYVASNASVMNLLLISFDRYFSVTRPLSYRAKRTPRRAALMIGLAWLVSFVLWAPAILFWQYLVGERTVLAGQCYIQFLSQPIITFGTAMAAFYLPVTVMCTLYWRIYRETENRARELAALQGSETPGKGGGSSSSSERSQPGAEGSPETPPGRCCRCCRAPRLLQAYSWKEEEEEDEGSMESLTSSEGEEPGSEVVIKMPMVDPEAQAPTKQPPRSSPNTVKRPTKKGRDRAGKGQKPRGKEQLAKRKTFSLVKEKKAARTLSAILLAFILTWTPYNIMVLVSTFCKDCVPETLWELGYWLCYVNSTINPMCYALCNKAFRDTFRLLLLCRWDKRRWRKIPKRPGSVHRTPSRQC
Procedure: as §1, §2, §3, §4

[1] = compound nos. 1-454, M4-CHO cells, calcium mobilization
[2] = compound nos. 1-454, M1-CHO cells, calcium mobilization

## COCCOC(=O)N1C2CCC1CC(N1CCC3(CCc4ccccc43)CC1)C2 (stereo not drawn) [compound 95]
M4 muscarinic receptor; compound nos. 1-454
  Emax: < 55%
M4 muscarinic receptor; [1]
  M4 Activity: ++ (activity was measured to be between 0.1 μM and 4.0 μM)
M1 muscarinic receptor; compound nos. 1-454
  Emax: 65 to 85%
M1 muscarinic receptor; [2]
  M1 Activity: +++ (activity was measured to be less than or equal to 0.7 μM)

## CC(=O)N1CC2(CCN(C3CCOCC3)CC2)c2cc(F)ccc21 [compound 268]
M4 muscarinic receptor; compound nos. 1-454
  Emax: < 55%
M4 muscarinic receptor; [1]
  M4 Activity: + (activity was measured to be greater than or equal to 4.0 μM)
M1 muscarinic receptor; compound nos. 1-454
  Emax: < 65%
M1 muscarinic receptor; [2]
  M1 Activity: + (activity was measured to be greater than or equal to 3.0 μM)

## CN(C)C(=O)N1CC2(CCN(C3CCN(c4cncc(-c5ccccc5O)n4)CC3)CC2)c2ccccc21 [compound 481]
M4 muscarinic receptor; compound nos. 455-509
  Emax: < 25%
M4 muscarinic receptor; compounds 455-509
  M4 Activity: ++ (activity was measured to be between 2.0 μM and 5.0 μM)
M1 muscarinic receptor; compound nos. 455-509
  Emax: < 25%
M1 muscarinic receptor; compounds 455-509
  M1 Activity: +++ (activity was measured to be less than or equal to 2.0 μM)

## CCOC(=O)N1CCC(N2CCC3(CC2)C[C@H](NC(C)=O)c2ccccc23)CC1 [compound 430]
M4 muscarinic receptor; compound nos. 1-454
  M4 Activity: + (activity was measured to be greater than or equal to 4.0 μM)
  Emax: < 55%
M1 muscarinic receptor; compound nos. 1-454
  M1 Activity: ++ (activity was measured to be between 0.7 μM and 3.0 μM)
  Emax: < 65%

## CCOC(=O)N1CCC(N2CCC3(CC2)CN(C(C)=O)c2ccc(-c4cccc(F)c4)cc23)CC1 [compound 84]
M4 muscarinic receptor; compound nos. 1-454
  Emax: 55 to 70%
M4 muscarinic receptor; [1]
  M4 Activity: ++ (activity was measured to be between 0.1 μM and 4.0 μM)
M1 muscarinic receptor; compound nos. 1-454
  Emax: 65 to 85%
M1 muscarinic receptor; [2]
  M1 Activity: +++ (activity was measured to be less than or equal to 0.7 μM)

## CCOC(=O)N1C2CCC1CC(N1CCC3(CC1)CN(C(=O)Nc1c(C)noc1C)c1ccc(F)cc13)C2 (stereo not drawn) [compound 83]
M4 muscarinic receptor; compound nos. 1-454
  Emax: < 55%
M4 muscarinic receptor; [1]
  M4 Activity: + (activity was measured to be greater than or equal to 4.0 μM)
M1 muscarinic receptor; compound nos. 1-454
  Emax: < 65%
M1 muscarinic receptor; [2]
  M1 Activity: +++ (activity was measured to be less than or equal to 0.7 μM)

## CC(=O)N1CC2(CCN(C3CCN(c4cncc(C5CC5)n4)CC3)CC2)c2ccccc21 [compound 503]
M4 muscarinic receptor; compound nos. 455-509
  Emax: < 25%
M4 muscarinic receptor; compounds 455-509
  M4 Activity: ++ (activity was measured to be between 2.0 μM and 5.0 μM)
M1 muscarinic receptor; compound nos. 455-509
  Emax: < 25%
M1 muscarinic receptor; compounds 455-509
  M1 Activity: +++ (activity was measured to be less than or equal to 2.0 μM)

## CCOC(=O)N1CCC(CN2CCC3(CC2)COc2ccc(F)cc23)CC1 [compound 107]
M4 muscarinic receptor; compound nos. 1-454
  Emax: < 55%
M4 muscarinic receptor; [1]
  M4 Activity: + (activity was measured to be greater than or equal to 4.0 μM)
M1 muscarinic receptor; compound nos. 1-454
  Emax: 65 to 85%
M1 muscarinic receptor; [2]
  M1 Activity: +++ (activity was measured to be less than or equal to 0.7 μM)

## CN(C)C(=O)N1CC2(CCN(C3CCN(C(=O)O[C@@H]4CCOC4)CC3)CC2)c2cc(F)ccc21 [compound 209]
M4 muscarinic receptor; compound nos. 1-454
  Emax: < 55%
M4 muscarinic receptor; [1]
  M4 Activity: + (activity was measured to be greater than or equal to 4.0 μM)
M1 muscarinic receptor; compound nos. 1-454
  Emax: > 85%
M1 muscarinic receptor; [2]
  M1 Activity: ++ (activity was measured to be between 0.7 μM and 3.0 μM)

## c1ccc2c(c1)NCC21CCN(C2CCC3CCC2C3)CC1 (stereo not drawn) [compound 244]
M4 muscarinic receptor; compound nos. 1-454
  Emax: 55 to 70%
M4 muscarinic receptor; [1]
  M4 Activity: + (activity was measured to be greater than or equal to 4.0 μM)
M1 muscarinic receptor; compound nos. 1-454
  Emax: 65 to 85%
M1 muscarinic receptor; [2]
  M1 Activity: ++ (activity was measured to be between 0.7 μM and 3.0 μM)

## CCOC(=O)N1CCC(N2CCC3(CC2)CN(C(=O)N2CCCC2)c2ccc(F)cc23)CC1 [compound 22]
M4 muscarinic receptor; compound nos. 1-454
  Emax: < 55%
M4 muscarinic receptor; [1]
  M4 Activity: + (activity was measured to be greater than or equal to 4.0 μM)
M1 muscarinic receptor; compound nos. 1-454
  Emax: 65 to 85%
M1 muscarinic receptor; [2]
  M1 Activity: +++ (activity was measured to be less than or equal to 0.7 μM)

## Clc1ccc2c(c1)C1(CCN(CC3CCCCC3)CC1)CN2 [compound 157]
M4 muscarinic receptor; compound nos. 1-454
  Emax: > 70%
M4 muscarinic receptor; [1]
  M4 Activity: + (activity was measured to be greater than or equal to 4.0 μM)
M1 muscarinic receptor; compound nos. 1-454
  Emax: 65 to 85%
M1 muscarinic receptor; [2]
  M1 Activity: +++ (activity was measured to be less than or equal to 0.7 μM)

## Cc1nsc(N2CC3(CCN(C4CC5CCC(C4)N5c4nc(C)ns4)CC3)c3ccccc32)n1 (stereo not drawn) [compound 477]
M4 muscarinic receptor; compound nos. 455-509
  Emax: 25 to 100%
M4 muscarinic receptor; compounds 455-509
  M4 Activity: ++ (activity was measured to be between 2.0 μM and 5.0 μM)
M1 muscarinic receptor; compound nos. 455-509
  Emax: > 100%
M1 muscarinic receptor; compounds 455-509
  M1 Activity: +++ (activity was measured to be less than or equal to 2.0 μM)

## CCOC(=O)N1CCC(N2CCC3(CC2)CN(CCC(=O)CC)c2ccc(F)cc23)CC1 [compound 229]
M4 muscarinic receptor; compound nos. 1-454
  Emax: > 70%
M4 muscarinic receptor; [1]
  M4 Activity: +++ (activity was measured to be less than or equal to 0.1 μM)
M1 muscarinic receptor; compound nos. 1-454
  Emax: < 65%
M1 muscarinic receptor; [2]
  M1 Activity: ++ (activity was measured to be between 0.7 μM and 3.0 μM)

## CN(C)C(=O)N1CC2(CCN(C3CC4CCC(C3)N4c3cnccn3)CC2)c2ccccc21 (stereo not drawn) [compound 500]
M4 muscarinic receptor; compound nos. 455-509
  Emax: 25 to 100%
M4 muscarinic receptor; compounds 455-509
  M4 Activity: ++ (activity was measured to be between 2.0 μM and 5.0 μM)
M1 muscarinic receptor; compound nos. 455-509
  Emax: > 100%
M1 muscarinic receptor; compounds 455-509
  M1 Activity: +++ (activity was measured to be less than or equal to 2.0 μM)
